Test results published in paper PMC9188586, “Design, synthesis and evaluation of novel tetrahydropyridothienopyrimidin-ureas as cytotoxic and anti-angiogenic agents” (Scientific Reports, 2022).

Assays:
MCF-7 (breast cancer) = experiment: MTT antiproliferative assay, MCF-7; assay type: cell-based
Procedure: (§1) Two series of new tetrahydropyridothienopyrimidines were evaluated for their cytotoxicity against a panel of cell lines, including MCF-7 (breast cancer), SW480 (colon cancer), PC-3 (prostate cancer), HEPG-2 (liver cancer) and HUVEC (human umbilical vein endothelial cell) using 3-(4,5-dimethyl- thiazol-2-yl)-2,5-diphenyltetrazolium bromide (MTT) assay. Sorafenib was used as a positive control. The cytotoxicity is expressed as the concentration that inhibits 50% of cell viability (IC50). […] The preliminary SAR is evaluated on the basis of cytotoxicity results of phenyl derivatives (11a–k) and pyridine derivatives (11l–11y).The mesomeric effect didn’t improve the cytotoxicity of compound 11d in the first series.
(§2) Cytotoxicity of the compounds was measured by detecting the ability of cells in transforming MTT into a purple formazan dye. The different cell lines were provided by the National Cell Bank of Iran (Pastor Institute, Tehran, Iran). The required materials and reagents were purchased from Sigma. After the cell culture in RPMI-1640 medium and DMEM containing 10% FBS (Gibco, Milano, Italy), the suspension of MCF-7 (7000) and other cells (5000) were poured into 96 well plates and incubated in a humidified incubator containing 5% CO2 at 37 °C for 24 h. Subsequently, a solution of the compounds in DMSO was added to these plates and incubated for 48 h. After incubation, the solution of 5% 3-(4,5-Dimethyl-2-thiazolyl)-2,5-diphenyl-2H-tetrazolium bromide (MTT) was added to all the wells and incubation was continued for another 4 h. The record of color intensity of the formazan solution was at 570 nm by Bio-Rad microplate reader (Model 680) which reflects the cell growth condition.

PC-3 (prostate cancer) = experiment: MTT antiproliferative assay, PC-3; assay type: cell-based; settings: 48 h incubation
Procedure: as §1, §2

SW480 (colon cancer) = experiment: MTT antiproliferative assay, SW480; assay type: cell-based
Procedure: as §1, §2

HEPG-2 (liver cancer) = experiment: MTT antiproliferative assay, HEPG-2; assay type: cell-based
Procedure: as §1, §2

[1] = tested on: HUVEC (human umbilical vein endothelial cell); experiment: MTT antiproliferative assay, HUVEC; assay type: cell-based; settings: for IC50: MTT assay, 48 h incubation
Procedure: as §1, §2

[2] = Homo sapiens, MCF7, 48 h incubation
[3] = Homo sapiens, SW480, 48 h incubation
[4] = Homo sapiens, HepG2, 48 h incubation

Row | Compound | IC50 (MCF-7 (breast cancer); [2]) | IC50 (PC-3 (prostate cancer)) | IC50 (SW480 (colon cancer); [3]) | IC50 (HEPG-2 (liver cancer); [4]) | melting point | IC50 (MCF-7 (breast cancer); 48 h incubation) | IC50 (SW480 (colon cancer); 48 h incubation) | IC50 (HEPG-2 (liver cancer); 48 h incubation) | IC50 ([1]; Homo sapiens, HUVEC) | IC50 [1] | increase of cytotoxicity against HUVEC on moving chlorine to para position ([1]; 11t vs 11u)
1 | COc1ccc(NC(=O)Nc2nnc(Sc3ncnc4sc5c(c34)CCN(Cc3ccccc3)C5)s2)cc1 [Compound 11d, 1-(5-((7-benzyl-5,6,7,8-tetrahydropyrido[4',3':4,5]thieno[2,3-d]pyrimidin-4-yl)thio)-1,3,4-thiadiazol-2-yl)-3-(4-methoxyphenyl)urea] | 51.92 ± 0.47 µM | 44 ± 1.52 µM | 45.1 ± 1.7 µM | 43.92 ± 0.16 µM | 280 to 282 °C | – | – | – | 44.15 ± 0.22 µM | – | –
2 | O=C(Nc1cccc(F)c1)Nc1nnc(Sc2ncnc3sc4c(c23)CCN(Cc2ccccc2)C4)s1 [Compound 11e, 1-(5-((7-benzyl-5,6,7,8-tetrahydropyrido[4',3':4,5]thieno[2,3-d]pyrimidin-4-yl)thio)-1,3,4-thiadiazol-2-yl)-3-(3-fluorophenyl)urea] | 13 ± 0.18 µM | 42.8 ± 1.82 µM | 65.6 ± 1.74 µM | 9.84 ± 0.06 µM | 144 to 146 °C | – | – | – | 27.48 ± 0.07 µM | – | –
3 | Cc1ccc(NC(=O)Nc2nnc(Sc3ncnc4sc5c(c34)CCN(Cc3ccccc3)C5)s2)cc1Cl [Compound 11i, 1-(5-((7-benzyl-5,6,7,8-tetrahydropyrido[4',3':4,5]thieno[2,3-d]pyrimidin-4-yl)thio)-1,3,4-thiadiazol-2-yl)-3-(3-chloro-4-methylphenyl)urea] | 50.8 ± 0.54 µM | 41.8 ± 1.22 µM | 69.6 ± 1.88 µM | 3.33 ± 0.07 µM | – | – | – | – | 24.63 ± 0.22 µM | – | –
4 | O=C(Nc1cccc(C(F)(F)F)c1)Nc1nnc(Sc2ncnc3sc4c(c23)CCN(Cc2ccccc2)C4)s1 [Compound 11j, 1-(5-((7-benzyl-5,6,7,8-tetrahydropyrido[4',3':4,5]thieno[2,3-d]pyrimidin-4-yl)thio)-1,3,4-thiadiazol-2-yl)-3-(3-(trifluoromethyl)phenyl)urea] | 68.94 ± 0.63 µM | 73.8 ± 2.92 µM | 46.8 ± 1.13 µM | 63 ± 0.64 µM | 181 to 183 °C | – | – | – | 67.1 ± 1.85 µM | – | –
5 | O=C(Nc1ccc(Cl)c(C(F)(F)F)c1)Nc1nnc(Sc2ncnc3sc4c(c23)CCN(Cc2ccccc2)C4)s1 [Compound 11k, 1-(5-((7-benzyl-5,6,7,8-tetrahydropyrido[4',3':4,5]thieno[2,3-d]pyrimidin-4-yl)thio)-1,3,4-thiadiazol-2-yl)-3-(4-chloro-3-(trifluoromethyl)phenyl)urea] | 24.66 ± 0.24 µM | 23.15 ± 0.21 µM | 63.5 ± 1.37 µM | 28.46 ± 0.25 µM | – | – | – | – | 37.56 ± 0.31 µM | – | –
6 | COc1ccc(NC(=O)Nc2nnc(Sc3ncnc4sc5c(c34)CCN(Cc3ccncc3)C5)s2)cc1 [Compound 11p, (4-Methoxyphenyl)-3-(5-((7-(pyridin-4-ylmethyl)-5,6,7,8-tetrahydropyrido[4',3':4,5]thieno[2,3-d]pyrimidin-4-yl)thio)-1,3,4-thiadiazol-2-yl)urea] | – | 43.5 ± 1.62 µM | – | – | – | 3.72 ± 0.55 µM | 29.4 ± 1.01 µM | 67.4 ± 0.33 µM | – | 2.86 ± 0.05 µM | –
7 | O=C(Nc1cccc(F)c1)Nc1nnc(Sc2ncnc3sc4c(c23)CCN(Cc2ccncc2)C4)s1 [Compound 11q, 1-(3-fluorophenyl)-3-(5-((7-(pyridin-4-ylmethyl)-5,6,7,8-tetrahydropyrido[4',3':4,5]thieno[2,3-d]pyrimidin-4-yl)thio)-1,3,4-thiadiazol-2-yl)urea] | 9.17 ± 0.04 µM | 4.5 ± 0.03 µM | 21.8 ± 0.72 µM | 74.3 ± 2.12 µM | 243 to 246 °C | – | – | – | 10.13 ± 0.05 µM | – | –
8 | O=C(Nc1ccc(F)cc1)Nc1nnc(Sc2ncnc3sc4c(c23)CCN(Cc2ccncc2)C4)s1 [Compound 11r, 1-(4-fluorophenyl)-3-(5-((7-(pyridin-4-ylmethyl)-5,6,7,8-tetrahydropyrido[4',3':4,5]thieno[2,3-d]pyrimidin-4-yl)thio)-1,3,4-thiadiazol-2-yl)urea] | 5.69 ± 0.03 µM | 18.98 ± 0.11 µM | 66.3 ± 1.24 µM | 67.5 ± 1.38 µM | – | – | – | – | 48.2 ± 0.62 µM | – | –
9 | O=C(Nc1nnc(Sc2ncnc3sc4c(c23)CCN(Cc2ccncc2)C4)s1)Nc1ccccc1Cl [Compound 11s, 1-(2-chlorophenyl)-3-(5-((7-(pyridin-4-ylmethyl)-5,6,7,8-tetrahydropyrido[4',3':4,5]thieno[2,3-d]pyrimidin-4-yl)thio)-1,3,4-thiadiazol-2-yl)urea] | 4.69 ± 0.09 µM | 8.94 ± 0.03 µM | 30.5 ± 0.12 µM | 26.26 ± 0.24 µM | 229 to 231 °C | – | – | – | 6.87 ± 0.03 µM | – | –
10 | O=C(Nc1cccc(Cl)c1)Nc1nnc(Sc2ncnc3sc4c(c23)CCN(Cc2ccncc2)C4)s1 [Compound 11t, 1-(3-chlorophenyl)-3-(5-((7-(pyridin-4-ylmethyl)-5,6,7,8-tetrahydropyrido[4',3':4,5]thieno[2,3-d]pyrimidin-4-yl)thio)-1,3,4-thiadiazol-2-yl)urea] | 12.68 ± 0.05 µM | 3.02 ± 1.12 µM | 14.6 ± 0.32 µM | 85 ± 3.4 µM | – | – | – | – | 67 ± 2.02 µM | – | –
11 | O=C(Nc1ccc(Cl)cc1)Nc1nnc(Sc2ncnc3sc4c(c23)CCN(Cc2ccncc2)C4)s1 [Compound 11u, 1-(4-chlorophenyl)-3-(5-((7-(pyridin-4-ylmethyl)-5,6,7,8-tetrahydropyrido[4',3':4,5]thieno[2,3-d]pyrimidin-4-yl)thio)-1,3,4-thiadiazol-2-yl)urea] | 8.1 ± 0.02 µM | 4.96 ± 0.18 µM | 60.7 ± 1.13 µM | 27.8 ± 1.84 µM | 188 to 190 °C | – | – | – | 2.08 ± 0.01 µM | – | ~30 folds
12 | O=C(Nc1ccc(Cl)c(Cl)c1)Nc1nnc(Sc2ncnc3sc4c(c23)CCN(Cc2ccncc2)C4)s1 [Compound 11v, 1-(3,4-dichlorophenyl)-3-(5-((7-(pyridin-4-ylmethyl)-5,6,7,8-tetrahydropyrido[4',3':4,5]thieno[2,3-d]pyrimidin-4-yl)thio)-1,3,4-thiadiazol-2-yl)urea] | 10.37 ± 0.03 µM | 55.3 ± 1.82 µM | 67.7 ± 1.55 µM | 26.4 ± 0.9 µM | – | – | – | – | 68.4 ± 1.44 µM | – | –

Further compounds by falling IC50 (PC-3 (prostate cancer)), results first:

Row | IC50 (MCF-7 (breast cancer); [2]) | IC50 (PC-3 (prostate cancer)) | IC50 (SW480 (colon cancer); [3]) | IC50 (HEPG-2 (liver cancer); [4]) | melting point | IC50 (MCF-7 (breast cancer); 48 h incubation) | IC50 (SW480 (colon cancer); 48 h incubation) | IC50 (HEPG-2 (liver cancer); 48 h incubation) | Compound | IC50 ([1]; Homo sapiens, HUVEC) | IC50 [1] | increase of cytotoxicity against HUVEC on moving chlorine to para position ([1]; 11t vs 11u)
13 | 62.4 ± 2.94 µM | 41.6 ± 1.1 µM | 56.5 ± 1.28 µM | 46.96 ± 0.35 µM | – | – | – | – | O=C(Nc1ccc(Cl)cc1)Nc1nnc(Sc2ncnc3sc4c(c23)CCN(Cc2ccccc2)C4)s1 [Compound 11g, 1-(5-((7-benzyl-5,6,7,8-tetrahydropyrido[4',3':4,5]thieno[2,3-d]pyrimidin-4-yl)thio)-1,3,4-thiadiazol-2-yl)-3-(4-chlorophenyl)urea] | 27.29 ± 0.19 µM | – | –
14 | 45.04 ± 0.41 µM | 41.4 ± 0.46 µM | 61.3 ± 2.02 µM | 30.7 ± 0.44 µM | 166 to 168 °C | – | – | – | O=C(Nc1ccc(F)cc1)Nc1nnc(Sc2ncnc3sc4c(c23)CCN(Cc2ccccc2)C4)s1 [Compound 11f, 1-(5-((7-benzyl-5,6,7,8-tetrahydropyrido[4',3':4,5]thieno[2,3-d]pyrimidin-4-yl)thio)-1,3,4-thiadiazol-2-yl)-3-(4-fluorophenyl)urea] | 47.98 ± 0.27 µM | – | –
15 | 23.34 ± 0.18 µM | 34.4 ± 1.64 µM | 24.5 ± 0.72 µM | 7.34 ± 0.01 µM | 230 to 232 °C | – | – | – | O=C(Nc1ccccc1)Nc1nnc(Sc2ncnc3sc4c(c23)CCN(Cc2ccccc2)C4)s1 [Compound 11a, 1-(5-((7-benzyl-5,6,7,8-tetrahydropyrido[4',3':4,5]thieno[2,3-d]pyrimidin-4-yl)thio)-1,3,4-thiadiazol-2-yl)-3-phenylurea] | 19.06 ± 0.12 µM | – | –
16 | 14.63 ± 0.07 µM | 33.6 ± 1.41 µM | 65.8 ± 0.28 µM | 69.32 ± 0.52 µM | 191 to 193 °C | – | – | – | COc1cccc(NC(=O)Nc2nnc(Sc3ncnc4sc5c(c34)CCN(Cc3ccncc3)C5)s2)c1 [Compound 11o, 1-(3-methoxyphenyl)-3-(5-((7-(pyridin-4-ylmethyl)-5,6,7,8-tetrahydropyrido[4',3':4,5]thieno[2,3-d]pyrimidin-4-yl)thio)-1,3,4-thiadiazol-2-yl)urea] | 20.6 ± 0.5 µM | – | –
17 | 42.87 ± 0.32 µM | 32.21 ± 0.3 µM | 70.2 ± 2.71 µM | 24.6 ± 0.39 µM | – | – | – | – | Cc1ccc(NC(=O)Nc2nnc(Sc3ncnc4sc5c(c34)CCN(Cc3ccccc3)C5)s2)cc1 [Compound 11c, 1-(5-((7-benzyl-5,6,7,8-tetrahydropyrido[4',3':4,5]thieno[2,3-d]pyrimidin-4-yl)thio)-1,3,4-thiadiazol-2-yl)-3-(p-tolyl)urea] | 26.12 ± 0.15 µM | – | –
18 | 6.8 ± 0.05 µM | 9.42 ± 0.63 µM | 71.9 ± 1.1 µM | 38.5 ± 0.42 µM | 157 to 159 °C | – | – | – | Cc1ccc(NC(=O)Nc2nnc(Sc3ncnc4sc5c(c34)CCN(Cc3ccncc3)C5)s2)cc1Cl [Compound 11w, 1-(3-chloro-4-methylphenyl)-3-(5-((7-(pyridin-4-ylmethyl)-5,6,7,8-tetrahydropyrido[4',3':4,5]thieno[2,3-d]pyrimidin-4-yl)thio)-1,3,4-thiadiazol-2-yl)urea] | 6.23 ± 0.03 µM | – | –
